Experiments:
[1] = system: carrageenan induced inflammatory hyperalgesia; assay: Carrageenan induced inflammatory hyperalgesia (Randall-Selitto), chronic model; assay type: in vivo, male SPRD rats; details: 30 mg/kg p.o.
Method: (§1) Edema was induced by injection of Carrageenan (CA) into plantar surface of right hind paw. Male SPRD rats (weighing 140-190 g) were used n=6-8/group). Then the mechanical pain threshold of the inflamed hind paw was determined with an analgesimeter ((Ugo Basile, type: 37215).
(§2) This assay monitors the decrease of the pain threshold, and the time depending changing of the pain by mechanical pain stimulus. Analgesics can increase the pain threshold of the inflamed hinds and this effect is in terms of percentage of reversal.
(§3) Untreated right hind paw was compressed with a progressively increasing pressure. The pressure was recorded (in grams) when the animal first vocalized or made a vigorous attempt to remove the paw. It was determined to baseline threshold of the untreated paw. (average: 80-110 g). After it the animals were treated with carrageenan. After the treatment the edema and the threshold were checked in a given times. […] (Average of inflammation induced pain threshold was 20-25 g, this means 65-80% decrease related to the baseline.)
(§4) The chronic phase of the inflammantion and the decreasing of the threshold were induced by higher dose of CA. Inflammation induced threshold decreasing was measured 24 hours after the CA injection (150 μl of 2% solution). ) After it the animals were treated with test compounds and valdecoxib (30-30 mg/kg p.o.). Change in the threshold was checked at 1 h, 2 h, and 3 h following drug administration. In both model used control groups were treated orally only with solvents at the time of treatments. In both protocol the effects of the test compounds were calculated in percentage reversal of mechanical hiperalgesia: [formula] • T3h: In acute model, the threshold in the control group at 3 h after the CA injection (in gram) • T24h: In chronic model, the threshold in the control group at 24 h after the CA injection (in gram) • T0h: The threshold before the CA injection (in gram) • TXh In acute model, at 3h after the CA injection • TXh=In chronic model, at 25 h, 26 h, 27 h after the CA injection

isolated rabbit heart = assay: Cardiac effects on the isolated rabbit heart (Langendorff, coronary flow); design: species or system New Zealand white rabbits; details: 1, 3 and 10 μM, 4-4 hearts
Method: New Zealand white rabbits weighing 1.5-2 kg were used. The animals were exsanguinated and after thoracotomy the hearts were excised and mounted on a Langendorff-type perfusion apparatus. The hearts were perfused via the aorta with oxigenated, thermostated (37° C.) Krebs solution. A constant perfusion pressure of 80 cmH2O was applied. The test compounds were dissolved in the perfusion solution to obtain the requested concentrations.
The basic value of coronary flow was determined. Afterwards the small amount of compounds were added to perfusion liquid and the perfusion was measured for 30 minutes at every 10 minutes. Afterwards 30 minutes perfusion was performed without compound and the measure was repeated with the medium and high amount of compounds.
The effects of same concentration of valdecoxib and compound of example 1 were investigated in 4-4 hearts (1, 3 and 10 μM). Valdecoxib had no effect in either concentration. It can clearly be shown that the coronary flow was increased dose dependently. This effect is advantageous in practice of clinical therapy, because the painful arthritic and degenerative joint and bone deformations are emerged rather in old age, when diseases of the vascular system are also frequently encountered, which can conduce to disorder of vascular bed of the heart.

[2] = system: inflammatory mechanical allodynia induced by carrageenan; assay: Carrageenan-induced inflammatory mechanical allodynia (von Frey); assay type: in vivo, male Sprague-Dawley rats; details: 30 mg/kg p.o.
Method: The-threshold of pain of the animals was measured by von Frey apparatus (IITC, type: 1601 C). […] The values were registered in the times of the pick up or raises. During each measurment the threshold was determined at least thrice and the avarage was calculated from the peak values.
Male Sprague-Dawley rats (weighing 250-300 g) were used (n=5-6/group). 100 μl of saline solution of carrageenant (CA) was injected to the middle of the paw. The stimulus threshold was measured after it, and the treatment was completed with gastro-probe per os. The effects of the materials were measured in 30, 60, 90, 120 minutes after the treatments. The effects were compared for control group treatment with vehicle (solution of 2% Tween-80).
The effect was calculated as follows: [formula] where tx=30, 60, 90, 120 min
In the acute pain model the analgesic effects of the valdecoxib and compound of example 1 were considerable with dose of 30 mg/kg p.o. once.

[3] = system: carrageenan and kaolin induced monoarthritis; assay: Carrageenan and kaolin induced monoarthritis model (incapacitance test); assay type: in vivo, rats; details: 10 mg/kg p.o.
Method: The Incapacitance tester is an apparatus for measure the changes of the functional parameters induced of the pain, which can register the bearing on the hind limb, the amount of the moving and the changing of the centre of gravity. Knee-joint of the right-back limb was treated with solution of 100 μl 2% carrageenan and kaolin. During 3-4 hours after the treatment arthritis was emerged in the capsular ligament of the treated limb. This inflammation still exists at 24 hours after the treatment. Because of the pain the animals coddles the treated limbs, thy weign on it less. Change of weight load is measurable with Incapacitance tester device in grams. The incapacitance was calculated as follows: [formula] Analgesic-antiinflammantory compounds could increase the stimulus threshold of the knee-joint, and consequently to improve the functional parameters of the limb. Measure of this can be counted by the decrease of the loading of left leg i.e. in terms of percentage of reversal. [formula] The Incapacitance induced by administration of irritants in left paw was measured at 4 hour after the injection. Afterwards the animals (n=24-32/group) were. orally treated with dose of 10 mg/kg valdecoxib and test compounds. Measurements were done at 1 and 2 hours after the treatments.

[4] = system: carrageenan-induced foot paw edema; assay: Carrageenan-induced rat foot paw edema assay; assay type: in vivo, male Wistar rats; details: for ED30 of edema inhibition: p.o.
Method: The edema was induced in male Wistar rats (140-150 g) by subcutaneous injection of carrageenan (50 μl of 1% suspension) into the right hind paw. The formed inflammation was measured with plethysmometer (Ugo Basile, type: 7150). The treated paw was placed into the plethysmometer (filled with 0.3% additives in 0.5% saline), the level of the inflammation was detected by the volume of the displaced solution. This volume was compared with the initial preinjection paw volume. Level of the inflammation (ml)=volume after CA treatment (ml)−volume before CA treatment (ml) The inflammation induced in treated group was compared to control group (which was given only vehicle). The sample materials and the solvent were dosed per os via gastro-sonde 1 hour before the CA treatment. The volume of the treated limb was measured at 3h and 5h after CA treatments. The change of the inflammation level was calculated as follows: [formula]

[5] = system: carrageenan induced inflammatory hyperalgesia; assay: Carrageenan induced inflammatory hyperalgesia (Randall-Selitto), acute model; assay type: in vivo, male SPRD rats; details: Acut model, 10 mg/kg p.o.
Method: as §1, §2, §3
1 hour after the CA injection (100 μl of 2% solution) the animals were treated with test compounds and valdecoxib (10-10 mg/kg p.o.). […]
as §4

Structure (SMILES): Cc1onc(-c2ccccc2)c1-c1ccc(S(N)(=O)=O)cc1 [valdecoxib, reference compound]
- Analgesic effect in % after p.o. treatment ([1]; 1 hour): 24.2%
- Analgesic effect in % after p.o. treatment ([1]; 2 hours): 36.9%
- Analgesic effect in % after p.o. treatment ([1]; 3 hours): 19.9%
- effect on coronary flow (in words) (isolated rabbit heart): no effect
- Analgesic effect in % after p.o. treatment ([2]; 30 min.): 69.2%
- Analgesic effect in % after p.o. treatment ([2]; 1 hour): 60.0%
- Analgesic effect in % after p.o. treatment ([2]; 1.5 hour): 57.7%
- Analgesic effect in % after p.o. treatment ([2]; 2 hours): 47.8%
- Analgesic effect (% reversal) after p.o. treatment ([3]; 1 hour): 52.1 % reversal
- Analgesic effect (% reversal) after p.o. treatment ([3]; 2 hours): 62.4 % reversal
- edema inhibition effect % ([4]; 0.1 mg/kg p.o., 4 hours after treatment): 29.4%
- edema inhibition effect % ([4]; 0.1 mg/kg p.o., 6 hours after treatment): 25.8%
- edema inhibition effect % ([4]; 0.3 mg/kg p.o., 4 hours after treatment): 34.1%
- edema inhibition effect % ([4]; 0.3 mg/kg p.o., 6 hours after treatment): 27.3%
- edema inhibition effect % ([4]; 1.0 mg/kg p.o., 4 hours after treatment): 40.1%
- edema inhibition effect % ([4]; 1.0 mg/kg p.o., 6 hours after treatment): 37.8%
- edema inhibition effect % ([4]; 3.0 mg/kg p.o., 4 hours after treatment): 47.7%
- edema inhibition effect % ([4]; 3.0 mg/kg p.o., 6 hours after treatment): 45.8%
- ED30 of edema inhibition ([4]; 4 hours after treatment): 0.2 mg/kg
- ED30 of edema inhibition ([4]; 6 hours after treatment): 0.3 mg/kg
- Analgesic effect in % after p.o. treatment ([5]; 2 hours): 50.5%
- Analgesic effect in % after p.o. treatment ([5]; 3 hours): 59.9%
- Analgesic effect in % after p.o. treatment ([5]; 4 hours): 33.2%

Reference: patent US20070093539A1, “N-hydroxy-4-(3-pheyl-5-methyl-isoxazole-4-yl)-benzenesulfonate solvates” (priority 2003, published 2007)
